Assay: xn = mol fraction of the nth substance listed
Conditions: 92.3 kPa

CCO + CCCC[NH3+].O=C[O-]
x2 = 0
Conditions	speed of sound [m/s]	viscosity [mPa·s]
293.15 K	1160.1	1.238
298.15 K	1142.9	1.092
308.15 K	1109	0.912
313.15 K	1092.3	0.836

CCCC[NH3+].O=C[O-] + CCO
Conditions	speed of sound, 293.15 K [m/s]	speed of sound, 298.15 K [m/s]	speed of sound, 303.15 K [m/s]	speed of sound, 308.15 K [m/s]	speed of sound, 313.15 K [m/s]	viscosity, 293.15 K [mPa·s]	viscosity, 298.15 K [mPa·s]	viscosity, 303.15 K [mPa·s]	viscosity, 308.15 K [mPa·s]	viscosity, 313.15 K [mPa·s]
x1 = 0.0484	1197.4	1180.8	1164.2	1147.9	1131.6	1.91	1.672	1.512	1.37	1.247
x1 = 0.1038	1232	1215.9	1199.9	1184	1168.2	2.85	2.5	2.26	2.04	1.845
x1 = 0.1507	–	1242.7	1227	1211.4	1196	–	3.44	3.07	2.76	2.49
x1 = 0.2004	1283.9	–	1253.1	–	1222.7	5.28	–	4.15	–	3.33
x1 = 0.2564	1310.4	1295.2	–	–	1250.5	7.29	6.4	–	–	4.54
x1 = 0.2938	1326.3	1311.4	1296.6	1281.9	1267.4	9	7.92	6.99	6.2	5.53
x1 = 0.355	1350.5	1336	–	–	1292.9	12.31	10.71	–	–	7.3
x1 = 0.3886	–	1348.5	1334.2	1320	–	–	12.67	11.04	9.68	–
x1 = 0.4521	1384.5	1370.5	–	–	1328.9	19.7	16.96	–	–	11.16
x1 = 0.5005	1399.2	1385.4	–	1358.1	1344.6	24.9	21.3	–	15.84	13.79
x1 = 0.5487	1413.1	1399.5	1386	1372.7	1359.4	30.5	25.8	22	18.89	16.39
x1 = 0.5982	1426.3	1412.9	–	1386.5	1373.5	37.6	31.7	–	23.1	19.7
x1 = 0.6393	1436.7	1423.5	1410.4	–	1384.7	44.9	37.5	31.5	–	23
x1 = 0.6993	1450.9	1437.9	1425.1	–	1399.8	57.4	47.4	39.5	–	28.3
x1 = 0.749	1462.1	1449.3	1436.6	1424.1	1411.7	70.3	57.5	47.7	39.9	33.8
x1 = 0.7972	–	1459.5	1447	1434.7	1422.5	–	69.5	57.1	47.4	39.8
x1 = 0.8487	1482	–	1457.2	1445.1	1433.2	103.8	–	68.4	56.6	47.2
x1 = 0.8993	1491.4	1479.1	1467	1455	1443.2	126.4	101.1	81.9	67.2	55.7
x1 = 0.9444	–	–	1475.2	1463.4	1451.8	–	–	95.8	78.1	64.4
x1 = 1	1508.6	1496.5	1484.7	1473.1	1461.7	182.3	143.6	114.7	92.7	76.1

Source: a compilation of properties of binary mixtures (doi:10.1016/j.jct.2022.106970)
